Data: patent EP4772186A1, “USE AND COMPOSITION OF POSTBIOTIC OF LACTOBACILLUS PARACASEI ET-22” (Inner Mongolia Yili Industrial Group Co., Ltd., priority 2023, dated 2025)

Tested on: volatile organic compounds (VOCs)
Assay: SPME-GC-MS of volatile organic compounds (VOCs) in saliva fermentation
Type: cell-based, halitosis subjects (saliva)
Description: Fresh saliva was collected from 10 halitosis subjects (Halimeter index >120). Subjects were required not to consume any food or drink for 2 hours before donating saliva. Saliva was directly spat into a saliva collection tube, 5 ml per person, and mixed. The mixture was centrifuged at 4500 rpm for 10 minutes, and the supernatant was collected, aliquoted, and stored at -80°C for subsequent experimental studies.
(§1) Lysate group: In a headspace vial, 100 µl of saliva was added first, followed by separate addition of ET-22 viable bacteria (1.0×10^9 CFU/ml), ET-22 heat-inactivated bacterial cells (obtained by inactivating viable bacteria at 1.0×10^9 CFU/ml), and lysate (obtained by inactivating and then filtering viable bacteria at 1.0×10^9 CFU/ml), each at 100µl. Then, 800 µl of SHI medium was added. After filling with nitrogen, anaerobic cultivation was performed for 10 hours for loading on machine, and then SPME-GC-MS was used to test the change in content of volatile organic compound.
as §1, with “NAD group:” for “Lysate group:”, “by the” for “by”, “by heat-inactivating” for “by inactivating”, “and NAD (100 µg/ml),” for “and lysate (obtained by inactivating and then filtering viable bacteria at 1.0×10^9 CFU/ml),”, “machine,” for “machine, and”, “the changes” for “the change”
2-hydroxy-3-phenylpropionic acid group: In a headspace vial, 100 µl of saliva was added first, followed by the separate addition of ET-22 viable bacteria (1.0×10^9 CFU/ml), ET-22 heat-inactivated bacterial cells (obtained by heat-inactivating viable bacteria at 1.0×10^9 CFU/ml), and 2-hydroxy-3-phenylpropionic acid (100 µg/ml), each at 100µl. […]
Helium was used as a carrier gas, with a rate remaining at 1.1 mL min-1. […] The flavor characteristic of each compound was determined based on data from the Good Scents Company Information System (http://www.thegoodscentscompany.com).

O=C(O)C(O)Cc1ccccc1 (stereo not drawn) [2-hydroxy-3-phenylpropionic acid]
significantly decreases: number of flavor-active acid compounds (among 71 aroma-active VOCs, 100 µg/ml) | number of flavor-active ester compounds (among 71 aroma-active VOCs, pure components 100 µg/ml, others from 1.0×10^9 CFU/ml) | number of alkane compounds (VOCs) (pure components 100 µg/ml, peptidoglycan from 1.0×10^9 CFU/ml, 10 hours)
